In US8133847B2, “Pyrido[2,3-B]pyrazine derivatives useful as herbicidal compounds” (Syngenta Limited, priority 2006, dated 2012):

Columns and labels:
Assay in all cases: Example B1 herbicidal action, post-emergence, 96-cell seed trays, climatic chamber
Assay type in all cases: in vivo
[1] = system: Nasturtium officinale (NAAOF); design: scale not given here; settings: Application post-emergence, 1000 mg/l spray equivalent to 1000 g/ha, evaluated after 9 days (100=total damage to plant, 0=no damage to plant)
Outline: (§1)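 Plants at 8–9 days post-sowing (23/17 °C, 13 h light, 50–60% humidity) sprayed post-emergence with 1000 mg/l active ingredient in 10% DMSO, equivalent to 1000 g/ha. Grown on at 24/19 °C, watered twice daily; damage scored after 9 days (0 = none, 100 = total).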

Solanum nigrum (SOLNI) = settings: Application post-emergence, 1000 mg/l spray equivalent to 1000 g/ha, evaluated after 9 days (100=total damage to plant, 0=no damage to plant)
Outline: as §1

[2] = system: Amaranthus retroflexus (AMARE); settings: Application post-emergence, 1000 mg/l spray equivalent to 1000 g/ha, evaluated after 9 days
Outline: as §1

Stellaria media (STEME) = settings: Application post-emergence, 1000 mg/l spray equivalent to 1000 g/ha, evaluated after 9 days (100=total damage to plant, 0=no damage to plant)
Outline: as §1

| Structure (SMILES) | damage to plant, Nasturtium officinale (NAAOF) [1] | damage to plant, Solanum nigrum (SOLNI) (Solanum nigrum (SOLNI)) | damage to plant, Amaranthus retroflexus (AMARE) [2] | damage to plant, Stellaria media (STEME) (Stellaria media (STEME)) |
| --- | --- | --- | --- | --- |
| CCCC(C)C(=O)Oc1c(-c2c(F)ccc(F)c2Cl)c(=O)n(C)c2nccnc12 (centres unmarked) [Compound C95] | 7 | 5 | 6 | 7 |
| CCCC(CCC)C(=O)Oc1c(-c2c(F)ccc(F)c2Cl)c(=O)n(C)c2nccnc12 [Compound C96] | 3 | 3 | 5 | 6 |
| CC(CC(=O)Oc1c(-c2c(F)ccc(F)c2Cl)c(=O)n(C)c2nccnc12)CC(C)(C)C (centres unmarked) [Compound C98] | 2 | 2 | 5 | 1 |
| Cc1noc(C)c1C(=O)Oc1c(-c2c(F)ccc(F)c2Cl)c(=O)n(C)c2nccnc12 [Compound C100] | 6 | 5 | 6 | 3 |
| C=CCCCCCCCCC(=O)Oc1c(-c2c(F)ccc(F)c2Cl)c(=O)n(C)c2nccnc12 [Compound C101] | 3 | 4 | 7 | 2 |
| Cc1cc(C(=O)Oc2c(-c3c(F)ccc(F)c3Cl)c(=O)n(C)c3nccnc23)c(C)o1 [Compound C102] | 7 | 7 | 4 | 7 |
| CCn1c(=O)c(-c2c(C)cc(C)cc2C)c(OC(=O)C(C)C)c2nccnc21 [Compound C103] | 6 | 7 | 4 | 7 |
| CCn1c(=O)c(-c2cc(C(F)(F)F)cc(C(F)(F)F)c2)c(OC(C)=O)c2nccnc21 [Compound C104] | 4 | 0 | 2 | 0 |
| Cn1c(=O)c(-c2c(F)ccc(F)c2Cl)c(OC(=O)C(C)(C)C)c2nccnc21 [Compound C105] | 6 | 5 | 5 | 8 |
| Cn1c(=O)c(-c2c(Cl)ccc(Cl)c2Cl)c(OC(=O)C(C)(C)C)c2nccnc21 [Compound C108] | 5 | 3 | 6 | 5 |
| Cn1c(=O)c(-c2ccccc2C(F)(F)F)c(OC(=O)C(C)(C)C)c2nccnc21 [Compound C109] | 4 | 6 | 3 | 0 |
| CC(C)C(=O)Oc1c(-c2ccccc2C(F)(F)F)c(=O)n(C)c2nccnc12 [Compound C110] | 6 | 6 | 7 | 7 |
| CCn1c(=O)c(-c2c(F)ccc(F)c2Cl)c(OC(=O)CC(C)(C)C)c2nccnc21 [Compound C112] | 5 | 7 | 6 | 7 |
| C=CCC(=O)Oc1c(-c2c(F)ccc(F)c2Cl)c(=O)n(CC=C)c2nccnc12 [Compound C113] | 6 | 6 | 7 | 8 |
| Cc1ccc(Cl)c(-c2c(OC(=O)C(C)C)c3nccnc3n(C)c2=O)c1F [Compound C114] | 5 | 2 | 2 | 6 |
| CCn1c(=O)c(-c2c(Cl)ccc(C)c2F)c(OC(=O)C(C)C)c2nccnc21 [Compound C115] | 7 | 4 | 4 | 8 |
| Cc1ccc(Cl)c(-c2c(OC(=O)C(C)(C)C)c3nccnc3n(C)c2=O)c1F [Compound C116] | 2 | 4 | 0 | 4 |
| CCn1c(=O)c(-c2c(Cl)ccc(C)c2F)c(OC(=O)C(C)(C)C)c2nccnc21 [Compound C117] | 0 | 5 | 0 | 1 |
| CC(C)C(=O)Oc1c(-c2cc(C(F)(F)F)ccc2Cl)c(=O)n(C)c2nccnc12 [Compound C118] | 7 | 6 | 6 | 8 |
| CCn1c(=O)c(-c2cc(C(F)(F)F)ccc2Cl)c(OC(=O)C(C)C)c2nccnc21 [Compound C119] | 7 | 6 | 7 | 8 |
| Cn1c(=O)c(-c2c(Cl)cc(C(F)(F)F)cc2Cl)c(OC(=O)C(C)(C)C)c2nccnc21 [Compound C120] | 6 | 7 | 5 | 7 |
| Cn1c(=O)c(-c2cc(C(F)(F)F)ccc2Cl)c(OC(=O)C(C)(C)C)c2nccnc21 [Compound C121] | 6 | 7 | 5 | 7 |
| CCn1c(=O)c(-c2cc(C(F)(F)F)ccc2Cl)c(OC(=O)C(C)(C)C)c2nccnc21 [Compound C122] | 4 | 6 | 6 | 7 |
| Cn1c(=O)c(-c2cccc(C(F)(F)F)c2Cl)c(OC(=O)C(C)(C)C)c2nccnc21 [Compound C123] | 4 | 6 | 4 | 6 |
| CC(C)C(=O)Oc1c(-c2cccc(C(F)(F)F)c2Cl)c(=O)n(CC2CC2)c2nccnc12 [Compound C124] | 8 | 7 | 9 | 8 |
| C=CCn1c(=O)c(-c2cccc(C(F)(F)F)c2Cl)c(OC(=O)C(C)C)c2nccnc21 [Compound C125] | 7 | 8 | 2 | 7 |
| Cc1ccc(F)c(-c2c(OC(=O)C(C)C)c3nccnc3n(C)c2=O)c1Cl [Compound C126] | 6 | 7 | 6 | 7 |
| CCn1c(=O)c(-c2c(F)ccc(C)c2Cl)c(OC(=O)C(C)C)c2nccnc21 [Compound C127] | 6 | 7 | 2 | 7 |
| Cc1ccc(F)c(-c2c(OC(=O)C(C)(C)C)c3nccnc3n(C)c2=O)c1Cl [Compound C128] | 6 | 7 | 3 | 6 |
